Results on seven compounds are retold here after BindingDB's records for doi:10.7270/Q23F4N29 (Broad Institute, 2010).

The target in this assay is T1, S-ribosylhomocysteine lyase (Vibrio harveyi, UniProt B0LUE4).
T1 sequence (B0LUE4 whole entry): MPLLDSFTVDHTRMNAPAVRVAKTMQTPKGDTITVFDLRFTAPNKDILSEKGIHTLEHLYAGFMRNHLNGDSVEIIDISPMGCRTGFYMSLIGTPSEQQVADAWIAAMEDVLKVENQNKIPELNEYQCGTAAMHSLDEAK
Nature of the assay: inhibition of purified LuxS SRH cleavage – biochemical, cell-free, homogeneous, mechanism study for V. harveyi quorum sensing inhibitors, dose response (AID 434944).

Molecules are shown by their SMILES.

A word on the EC50: it is the concentration that produces a half-maximal response. Low readings indicate greater potency, high ones weaker potency. For `Cc1cccc(NS(=O)(=O)c2ccc(Oc3ccccc3)cc2)n1` [SMR000071466], the half-maximal effective concentration (EC50) is above 350 µM.

As for `Cn1cnc(S(=O)(=O)Nc2ccc(OC(F)(F)F)cc2)c1` [SMR000314513], the EC50 is above 350 µM.

On to `C=Cn1c(C(=O)O)ccc1-c1ccc(CC)cc1`, for which the midpoint of the response, the EC50, lay at 149 µM.

In turn, `CCc1ccc(S(=O)(=O)Nc2ccc(Br)cn2)cc1` [MLS001211346] registered an EC50 above 350 µM.

`CCCc1ccc(S(=O)(=O)N(C)S(=O)(=O)c2ccc(F)cc2)cc1` [N-(4-fluorophenyl)sulfonyl-N-methyl-4-propylbenzenesulfonamide] gave an EC50 above 350 µM.

Turning to `CN(C)S(=O)(=O)c1ccc(NC(=S)NC(=O)Cc2ccccc2)cc1` [N-[[4-(dimethylsulfamoyl)phenyl]carbamothioyl]-2-phenyl-ethanamide], the EC50 is above 350 µM.

For `COc1cc(NC(=O)CN2C(=O)NC(c3ccccc3)(c3ccccc3)C2=O)cc(OC)c1` [MLS001176525], the EC50 was above 350 µM.
